From publication PMC6127322, “Novel Imidazole and Methoxybenzylamine Growth Inhibitors Affecting Salmonella Cell Envelope Integrity and its Persistence in Chickens” (Scientific Reports, 2018)
≈ marks a conversion by molar mass, not a printed value. Where two headings read alike, the source gives them in different places.

Columns and labels:
[1] = test system: Salmonella enterica subsp. enterica serotype Typhimurium; assay: Checkerboard assay, SM and antibiotic combinations; assay type: cell-based; settings: for MBC: Salmonella enterica, TYPHIMURIUM, antibiotic alone, M9 medium, read-out: AB MBCalone
Protocol: The potentiation effect of several antibiotics, commonly used to control Salmonella, was studied in a checkerboard assay. […] The MBC of each antibiotic was determined in M9 medium prior the experiment using a dose-response assay, as described above. For potentiation studies, 100 μl of a S. […] The MBC of each antibiotic was determined as described in the dose-response assay. Bacteria challenged with SMs or antibiotics alone at the same concentrations were used to determine the antibiotic-SM combination effects. […] Further, the bacterial suspension was plated on an agar medium and incubated at 37 °C for 36 hrs. The antibiotic-SM combination effect was calculated based on the determination of the fractional bactericidal concentration (FBC) as previously described[66],[67].

[2] = test system: S. Typhimurium LT2 wild-type (WT) strain; assay: Dose-response assay (MIC and MBC determination) in M9 broth; assay type: cell-based, Salmonella enterica subsp. enterica serovar Typhimurium; settings: 12 hrs at 37 °C, read-out: MBC (minimal bactericidal concentration)
Protocol: Typhimurium using high-throughput screening assay in a 96-well plate format. […] Plates were incubated in a Sunrise Tecan kinetic microplate reader for 12 hrs at 37 °C and the optical density (OD) was measured at 600 nm. The percentage of growth inhibition was calculated as: […]. Cultures from wells showing no turbidimetric increase were transferred onto a XLT4 agar plate. Plates were incubated at 37 °C for 36 hrs. […] S. Typhimurium was challenged with a determined concentration of SM as described in the primary screen.

Salmonella Enteritidis = assay: Dose-response assay (MBC) on Salmonella serovars; assay type: cell-based; settings: Salmonella enterica; serovar Enteritidis, M9 broth
Salmonella Heidelberg = assay: Dose-response assay (MBC) on Salmonella serovars; assay type: cell-based; settings: Salmonella enterica; serovar Heidelberg, M9 broth
Salmonella Javiana = assay: Dose-response assay (MBC) on Salmonella serovars; assay type: cell-based, Salmonella enterica
Salmonella Newport = assay: Dose-response assay (MBC) on Salmonella serovars; assay type: cell-based; settings: Salmonella enterica; serovar Newport, M9 broth
Salmonella Saint-Paul = assay: Dose-response assay (MBC) on Salmonella serovars; assay type: cell-based, Salmonella enterica; settings: serovar Saint-Paul, M9 broth
[3] = test system: nine Salmonella serotypes; assay: Activity spectrum and dose-response across Salmonella serotypes; assay type: cell-based, Salmonella enterica
Protocol: The 128 SMs inhibiting S. Typhimurium growth (20% or higher) were tested for their antimicrobial effect on nine different Salmonella serovars frequently implicated in foodborne gastroenteritis outbreaks. […] Both screens were performed at 200 µM as described in the primary screening. Growth conditions for each strain are described in Supplementary Table S2.
S. Typhimurium was challenged with a determined concentration of SM as described in the primary screen.

S. Typhimurium = assay type: cell-based, Salmonella enterica subsp. enterica serovar Typhimurium
[4] = test system: Kan^R S. Typhimurium in G. mellonella larvae; assay: Efficacy in Salmonella-infected G. mellonella larvae; assay type: in vivo, Galleria mellonella; settings: for Survival of infected larvae: three days
Protocol: Wax moths were selected as mentioned above. For this study, Kan^R S. Typhimurium was used for challenge. First, the virulence of Kan^R S. Typhimurium was assessed in comparison to WT parent S. Typhimurium strain in G. mellonella. Briefly, larvae (n = 20) were infected in one pro-leg with approximately 8.5 × 10^3 S. Typhimurium suspended in 10 mM MgSO4 (8,5 µl of inoculum) and incubated for three days in the dark at 37 °C in a petri dish. Survival was monitored every 12 hrs for three days. Bacterial quantification was performed once the larvae had died (dark pigmentation or no reaction to a mechanical stimulus) or after 72 hrs of incubation. Larvae were washed once with 70% ethanol, twice with sterile distilled water for 30 sec each, and transferred individually into an Eppendorf® tubes containing 1 ml of 1X PBS and homogenized. The mixture was serially diluted, plated on XLT-4 agar plate supplemented with 50 µg/ml kanamycin, and incubated for 36 hrs at 37 °C. Larvae not treated and larvae treated with the buffer mix were included as controls. The virulence of Kan^R and WT S. Typhimurium strains was assessed by comparing the larval mortality and bacterial counts.
To test the effect of SMs on S. Typhimurium in larvae, SMs and Kan^R S. Typhimurium were injected into two different pro-legs and at different time points as previously described. First, the larvae were treated with SMs, then incubated for 2 hrs at 37 °C in a petri dish, and infected with approximately 8.5 × 10^3 of Kan^R S. Typhimurium per larva. Summary of treatments are described in Supplementary Table S3. Larvae treated with 50 mg/kg chloramphenicol were used as control (lowest concentration of antibiotic allowing 100% larva survival rate; see Supplementary Fig. S3F).
34 Supplemental Table 3. SM treatment groups: wax moth study
Groups Treatment S. Typhimurium*
Negative control 30% DMSO Yes
36 At the given concentration, SMs were soluble at 30% DMSO and higher. Asterisk:
37 larvae were infected with approximately 3.5 X 104 S. Typhimurium bacteria per […]

[5] = antibiotic combined with SM1 at the concentration in the next cell
[6] = antibiotic combined with SM3 at the concentration in the next cell
[7] = antibiotic combined with SM4 at the concentration in the next cell
[8] = antibiotic combined with SM5 at the concentration in the next cell

CO/N=C(\C(=O)N[C@@H]1C(=O)N2C(C(=O)O)=C(COC(C)=O)CS[C@H]12)c1csc(N)n1 [Cefotaxime]
MBC ([1]; 12 h): 3.2 µg/mL | AB MBCcombined [1, 5]: 3.2 µg/mL | AB MBCcombined [1, 6]: 3.2 µg/mL | AB MBCcombined [1, 7]: 3.2 µg/mL | AB MBCcombined [1, 8]: 3.2 µg/mL | Combination effect (FBC class) ([1]; antibiotic with SM1): c (Indifferent (FBC > 1.0 and ≤2.0; reduction in MBCs inferior to 50% for both antibiotic and SM)) | Combination effect (FBC class) ([1]; antibiotic with SM3): c (Indifferent (FBC > 1.0 and ≤2.0; reduction in MBCs inferior to 50% for both antibiotic and SM)) | Combination effect (FBC class) ([1]; antibiotic with SM4): c (Indifferent (FBC > 1.0 and ≤2.0; reduction in MBCs inferior to 50% for both antibiotic and SM)) | Combination effect (FBC class) ([1]; antibiotic with SM5): c (Indifferent (FBC > 1.0 and ≤2.0; reduction in MBCs inferior to 50% for both antibiotic and SM))

CC[C@H]1OC(=O)[C@H](C)[C@@H](O[C@H]2C[C@@](C)(OC)[C@@H](O)[C@H](C)O2)[C@H](C)[C@@H](O[C@@H]2O[C@H](C)C[C@H](N(C)C)[C@H]2O)[C@](C)(O)C[C@@H](C)C(=O)[C@H](C)[C@@H](O)[C@]1(C)O [Erythromycin]
MBC ([1]; 12 h): 200 µg/mL | AB MBCcombined [1, 5]: 200 µg/mL | AB MBCcombined [1, 6]: 200 µg/mL | AB MBCcombined [1, 7]: 200 µg/mL | AB MBCcombined [1, 8]: 200 µg/mL | Combination effect (FBC class) ([1]; antibiotic with SM1): c (Indifferent (FBC > 1.0 and ≤2.0; reduction in MBCs inferior to 50% for both antibiotic and SM)) | Combination effect (FBC class) ([1]; antibiotic with SM3): c (Indifferent (FBC > 1.0 and ≤2.0; reduction in MBCs inferior to 50% for both antibiotic and SM)) | Combination effect (FBC class) ([1]; antibiotic with SM4): c (Indifferent (FBC > 1.0 and ≤2.0; reduction in MBCs inferior to 50% for both antibiotic and SM)) | Combination effect (FBC class) ([1]; antibiotic with SM5): c (Indifferent (FBC > 1.0 and ≤2.0; reduction in MBCs inferior to 50% for both antibiotic and SM))

C[C@@H](O)[C@H]1C(=O)N2C(C(=O)O)=C(S[C@@H]3CN[C@H](C(=O)N(C)C)C3)[C@H](C)[C@H]12 [Meropenem]
MBC ([1]; 12 h): 0.2 µg/mL | MBC [1]: 0.2 µg/mL | AB MBCcombined [1, 7]: 0.2 µg/mL | AB MBCcombined [1, 8]: 0.2 µg/mL | Combination effect (FBC class) ([1]; antibiotic with SM1): b (Additive effect (FBC > 0.5 and ≤ 1.0; percentage reduction in MBCs between 50% and 75% for both antibiotic and SM)) | Combination effect (FBC class) ([1]; antibiotic with SM3): c (Indifferent (FBC > 1.0 and ≤2.0; reduction in MBCs inferior to 50% for both antibiotic and SM)) | Combination effect (FBC class) ([1]; antibiotic with SM4): c (Indifferent (FBC > 1.0 and ≤2.0; reduction in MBCs inferior to 50% for both antibiotic and SM)) | Combination effect (FBC class) ([1]; antibiotic with SM5): c (Indifferent (FBC > 1.0 and ≤2.0; reduction in MBCs inferior to 50% for both antibiotic and SM))

CCn1cc(C(=O)O)c(=O)c2ccc(C)nc21 [Nalidixic acid]
MBC ([1]; 12 h): 16 µg/mL | MBC [1]: 16 µg/mL | AB MBCcombined [1, 6]: 16 µg/mL | AB MBCcombined [1, 7]: 16 µg/mL | AB MBCcombined [1, 8]: 16 µg/mL | Combination effect (FBC class) ([1]; antibiotic with SM1): c (Indifferent (FBC > 1.0 and ≤2.0; reduction in MBCs inferior to 50% for both antibiotic and SM)) | Combination effect (FBC class) ([1]; antibiotic with SM3): c (Indifferent (FBC > 1.0 and ≤2.0; reduction in MBCs inferior to 50% for both antibiotic and SM)) | Combination effect (FBC class) ([1]; antibiotic with SM4): c (Indifferent (FBC > 1.0 and ≤2.0; reduction in MBCs inferior to 50% for both antibiotic and SM)) | Combination effect (FBC class) ([1]; antibiotic with SM5): c (Indifferent (FBC > 1.0 and ≤2.0; reduction in MBCs inferior to 50% for both antibiotic and SM))

CN(CCO)CC(O)Cn1c2ccc(Br)cc2c2cc(Br)ccc21 (stereo not drawn) [SM2]
MBC [2]: 100 µM (≈ 45.6 µg/mL) | MBC ([2]; Salmonella enterica): 100 µM (≈ 45.6 µg/mL) | MBC (Salmonella Enteritidis): 200 µM (≈ 91.2 µg/mL) | MBC (Salmonella Heidelberg): 200 µM (≈ 91.2 µg/mL) | MBC (Salmonella Javiana): 200 µM (≈ 91.2 µg/mL) | MBC (Salmonella Newport): 200 µM (≈ 91.2 µg/mL) | MBC (Salmonella Saint-Paul): 200 µM (≈ 91.2 µg/mL) | Effect against the nine Salmonella serotypes ([3]; 200 µM, M9 broth): cidal | MBC ([3]; Salmonella, read-out: MBCs among the nine serotypes): 100 to 200 µM (≈ 45.6 to 91.2 µg/mL) | Concentration in which resistant bacteria were able to grow (S. Typhimurium; M9 broth, 4X MBC): 400 µM | Resistance development of S. Typhimurium (S. Typhimurium; lethal dose (2X MBC) on solid medium or repeated exposure to sub-lethal dose (0.75X MBC) in liquid medium): developed resistance

O=[N+]([O-])c1ccc(F)c(N=Cc2cc(Cl)cc(Cl)c2O)c1 [SM7]
MBC [2]: 50 µM (≈ 16.5 µg/mL)

COc1cccc(N=Cc2cc(Cl)cc(Cl)c2O)c1 [SM8]
MBC [2]: 100 µM (≈ 29.6 µg/mL)

O=C(N[C@H](CO)[C@H](O)c1ccc([N+](=O)[O-])cc1)C(Cl)Cl [chloramphenicol]
Survival of infected larvae ([4]; 50 mg/kg): 100% | Survival of infected larvae ([4]; 50, 75, and 100 mg/kg, treated 2 hrs before infection): 100% | Lowest concentration allowing 100% larva survival rate ([4]; infected larvae): 50 mg/kg
